In patent publication US8425908B2, “Treatment with anti-ErbB2 antibodies” (Genentech, Inc., priority 1997, dated 2013):

Tested on: ErbB2-overexpressing metastatic breast cancer
Test: Randomized clinical study of chemotherapy with or without HERCEPTIN in patients with metastatic breast cancer
Format: in vivo, human
Excerpt: Eligibility Criteria Patients had to fulfill all of the following criteria to be eligible for study admission: • Metastatic breast cancer • Overexpression of the ErbB2 (HER2) oncogene (2+ to 3+ as determined by immunohistochemistry or fluorescence in situ hybridization (FISH). [Tumor expression of ErbB2 can be determined by immunohistochemical analysis, as previously described (Slamon et al., [1987] and [1989], supra), of a set of thin sections prepared from the patient's paraffin-archived tumor blocks. The primary detecting antibody used is murine 4D5 MAb, which has the same CDRs as the humanized antibody used for the treatment.
Measurable disease was defined as any mass reproducibly measurable in two perpendicular diameters by physical examination, X-ray (plain films), computerized tomography (CT), magnetic resonance imaging (MRI), ultrasound, or photographs.
Osteoblastic metastases, pleural effusions, or ascites were not considered to be measurable. Measurable lesions must be at least 1 cm in greatest dimension. Enumeration of evaluable sites of metastatic disease and number of lesions in an evaluable site (e.g. lung) had to be recorded on the appropriate Case Report Form (CRF). If a large number of pulmonary or hepatic lesions were present, the six largest lesions per site were followed. • The ability to understand and willingness to sign a written informed consent form • Women≧18 years • Suitable candidates for receiving concomitant cytotoxic chemotherapy as evidenced by screening laboratory assessments of hematologic, renal, hepatic, and metabolic functions.
Exclusion Criteria Patients with any of the following were excluded from study entry: • Prior cytotoxic chemotherapy for metastatic breast cancer Patients may have received prior hormonal therapy (e.g. tamoxifen) for metastatic disease or cytotoxic therapy in the adjuvant setting. • Concomitant malignancy that has not been curatively treated • A performance status of <60% on the Karnofsky scale • Pregnant or nursing women; women of childbearing potential, unless using effective contraception as determined by the investigator • Bilateral breast cancer (either both primary tumors must have 2+ to 3+ HER2 overexpression, or the metastatic site must have 2+ to 3+ HER2 overexpression) • Use of investigational or unlicensed agents within 30 days prior to study entry • Clinically unstable or untreated metastases to the brain (e.g. requiring radiation therapy)
Half the patients (stratified by chemotherapy) were randomized to additionally receive the HERCEPTIN® antibody (see below).
Beginning on day 7, patients received weekly administration of 2 mg/kg antibody (i.v.) over a 90-minute period. […]

[1] = median follow-up of 10.5 months

syndrome of myocardial dysfunction, Grade 3/4: 0%
SMILES: CC(=O)O[C@H]1C(=O)[C@@]2(C)[C@H]([C@H](OC(=O)c3ccccc3)[C@]3(O)C[C@H](OC(=O)[C@H](O)[C@@H](NC(=O)c4ccccc4)c4ccccc4)C(C)=C1C3(C)C)[C@]1(OC(C)=O)CO[C@@H]1C[C@@H]2O [T, paclitaxel]
AE (%), overall severe adverse events [1]: 59%
RR (%), response rates [1]: 25.0%
TTP (months), time to disease progression [1]: 4.2 months
